{"source": "patent US8030443B2", "about": "“Squamous cell carcinoma antigen-derived peptide binding to HLA-A24 molecule” (Kurume University, priority 2005, dated 2011)", "system": "peptide-specific IgG in sera of cancer patients and healthy donors", "assay": "Measurement of anti-peptide IgG in plasma by LUMINEX multiplexed flow cytometric assay", "assay_type": "binding, human", "how_it_was_run": "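Plasma diluted 1/100 incubated with peptide-coupled colour-coded beads 2 h at RT, then biotinylated goat anti-human IgG (γ-chain) 1 h and streptavidin-PE 30 min; fluorescence read by multiplexed flow cytometry, >100 counted significant. Specificity checked by three rounds of absorption on corresponding versus irrelevant SCCA peptide.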", "data": [{"sequence": "QFQKLLTEF (SCCA 84-92 peptide) [SCCA-derived peptide, position 84-92]", "values": [{"measurement": "Total: healthy donors with significant peptide-reactive IgG / donors tested", "setting": "10 healthy donors, significant when fluorescence intensity exceeded 100 at 1/100 dilution", "value": "1/10"}, {"measurement": "Total: cancer patients with significant peptide-reactive IgG / patients tested", "setting": "71 cancer patients, significant when fluorescence intensity exceeded 100 at 1/100 dilution", "value": "14/71"}, {"measurement": "Fluorescence intesity", "setting": "serum of Breast Ca. patient #36, 1:100 dilution", "value": 95}, {"measurement": "Fluorescence intesity", "setting": "serum of Breast Ca. patient #37, 1:100 dilution", "value": 0}, {"measurement": "Fluorescence intesity", "setting": "serum of Breast Ca. patient #38, 1:100 dilution", "value": 31}, {"measurement": "Fluorescence intesity", "setting": "serum of Breast Ca. patient #39, 1:100 dilution", "value": 34}, {"measurement": "Fluorescence intesity", "setting": "serum of Breast Ca. patient #40, 1:100 dilution", "value": 5}, {"measurement": "Fluorescence intesity", "setting": "serum of Breast Ca. patient #41, 1:100 dilution", "value": 182}, {"measurement": "Fluorescence intesity", "setting": "serum of Breast Ca. patient #42, 1:100 dilution", "value": 11}, {"measurement": "Fluorescence intesity", "setting": "serum of Breast Ca. patient #43, 1:100 dilution", "value": 26}, {"measurement": "Fluorescence intesity", "setting": "serum of Breast Ca. patient #44, 1:100 dilution", "value": 20}, {"measurement": "Fluorescence intesity", "setting": "serum of Breast Ca. patient #45, 1:100 dilution", "value": 39}, {"measurement": "Fluorescence intesity", "setting": "serum of Colon Ca. patient #66, 1:100 dilution", "value": 0}, {"measurement": "Fluorescence intesity", "setting": "serum of Colon Ca. patient #67, 1:100 dilution", "value": 47}, {"measurement": "Fluorescence intesity", "setting": "serum of Colon Ca. patient #68, 1:100 dilution", "value": 0}, {"measurement": "Fluorescence intesity", "setting": "serum of Colon Ca. patient #69, 1:100 dilution", "value": 0}, {"measurement": "Fluorescence intesity", "setting": "serum of Colon Ca. patient #70, 1:100 dilution", "value": 0}, {"measurement": "Fluorescence intesity", "setting": "serum of Colon Ca. patient #71, 1:100 dilution", "value": 8}, {"measurement": "Fluorescence intesity", "setting": "serum of Gastric Ca. patient #56, 1:100 dilution", "value": 18}, {"measurement": "Fluorescence intesity", "setting": "serum of Gastric Ca. patient #57, 1:100 dilution", "value": 7}, {"measurement": "Fluorescence intesity", "setting": "serum of Gastric Ca. patient #58, 1:100 dilution", "value": 0}, {"measurement": "Fluorescence intesity", "setting": "serum of Gastric Ca. patient #59, 1:100 dilution", "value": 118}, {"measurement": "Fluorescence intesity", "setting": "serum of Gastric Ca. patient #60, 1:100 dilution", "value": 0}, {"measurement": "Fluorescence intesity", "setting": "serum of Gastric Ca. patient #61, 1:100 dilution", "value": 102}, {"measurement": "Fluorescence intesity", "setting": "serum of Gastric Ca. patient #62, 1:100 dilution", "value": 0}, {"measurement": "Fluorescence intesity", "setting": "serum of Gastric Ca. patient #63, 1:100 dilution", "value": 0}, {"measurement": "Fluorescence intesity", "setting": "serum of Gastric Ca. patient #64, 1:100 dilution", "value": 7}, {"measurement": "Fluorescence intesity", "setting": "serum of Gastric Ca. patient #65, 1:100 dilution", "value": 0}, {"measurement": "Fluorescence intesity", "setting": "serum of Healthy Donor #1, 1:100 dilution", "value": 0}, {"measurement": "Fluorescence intesity", "setting": "serum of Healthy Donor #2, 1:100 dilution", "value": 79}, {"measurement": "Fluorescence intesity", "setting": "serum of Healthy Donor #3, 1:100 dilution", "value": 0}, {"measurement": "Fluorescence intesity", "setting": "serum of Healthy Donor #4, 1:100 dilution", "value": 0}, {"measurement": "Fluorescence intesity", "setting": "serum of Healthy Donor #5, 1:100 dilution", "value": 0}, {"measurement": "Fluorescence intesity", "setting": "serum of Healthy Donor #6, 1:100 dilution", "value": 0}, {"measurement": "Fluorescence intesity", "setting": "serum of Healthy Donor #7, 1:100 dilution", "value": 0}, {"measurement": "Fluorescence intesity", "setting": "serum of Healthy Donor #8, 1:100 dilution", "value": 332}, {"measurement": "Fluorescence intesity", "setting": "serum of Healthy Donor #9, 1:100 dilution", "value": 33}, {"measurement": "Fluorescence intesity", "setting": "serum of Healthy Donor #10, 1:100 dilution", "value": 0}, {"measurement": "Fluorescence intesity", "setting": "serum of Pancreas Ca. patient #46, 1:100 dilution", "value": 0}, {"measurement": "Fluorescence intesity", "setting": "serum of Pancreas Ca. patient #47, 1:100 dilution", "value": 3}, {"measurement": "Fluorescence intesity", "setting": "serum of Pancreas Ca. patient #48, 1:100 dilution", "value": 344}, {"measurement": "Fluorescence intesity", "setting": "serum of Pancreas Ca. patient #49, 1:100 dilution", "value": 0}, {"measurement": "Fluorescence intesity", "setting": "serum of Pancreas Ca. patient #50, 1:100 dilution", "value": 0}, {"measurement": "Fluorescence intesity", "setting": "serum of Pancreas Ca. patient #51, 1:100 dilution", "value": 0}, {"measurement": "Fluorescence intesity", "setting": "serum of Pancreas Ca. patient #52, 1:100 dilution", "value": 108}, {"measurement": "Fluorescence intesity", "setting": "serum of Pancreas Ca. patient #53, 1:100 dilution", "value": 0}, {"measurement": "Fluorescence intesity", "setting": "serum of Pancreas Ca. patient #54, 1:100 dilution", "value": 13}, {"measurement": "Fluorescence intesity", "setting": "serum of Pancreas Ca. patient #55, 1:100 dilution", "value": 0}, {"measurement": "Fluorescence intesity", "setting": "serum of Uterine cervical Ca. patient #1, 1:100 dilution", "value": 20}, {"measurement": "Fluorescence intesity", "setting": "serum of Uterine cervical Ca. patient #2, 1:100 dilution", "value": 2}, {"measurement": "Fluorescence intesity", "setting": "serum of Uterine cervical Ca. patient #3, 1:100 dilution", "value": 0}, {"measurement": "Fluorescence intesity", "setting": "serum of Uterine cervical Ca. patient #4, 1:100 dilution", "value": 29}, {"measurement": "Fluorescence intesity", "setting": "serum of Uterine cervical Ca. patient #5, 1:100 dilution", "value": 15}, {"measurement": "Fluorescence intesity", "setting": "serum of Uterine cervical Ca. patient #6, 1:100 dilution", "value": 922}, {"measurement": "Fluorescence intesity", "setting": "serum of Uterine cervical Ca. patient #7, 1:100 dilution", "value": 12}, {"measurement": "Fluorescence intesity", "setting": "serum of Uterine cervical Ca. patient #8, 1:100 dilution", "value": 28}, {"measurement": "Fluorescence intesity", "setting": "serum of Uterine cervical Ca. patient #9, 1:100 dilution", "value": 67}, {"measurement": "Fluorescence intesity", "setting": "serum of Uterine cervical Ca. patient #10, 1:100 dilution", "value": 15}, {"measurement": "Fluorescence intesity", "setting": "serum of Uterine cervical Ca. patient #11, 1:100 dilution", "value": 23}, {"measurement": "Fluorescence intesity", "setting": "serum of Uterine cervical Ca. patient #12, 1:100 dilution", "value": 35}, {"measurement": "Fluorescence intesity", "setting": "serum of Uterine cervical Ca. patient #13, 1:100 dilution", "value": 23}, {"measurement": "Fluorescence intesity", "setting": "serum of Uterine cervical Ca. patient #14, 1:100 dilution", "value": 20}, {"measurement": "Fluorescence intesity", "setting": "serum of Uterine cervical Ca. patient #15, 1:100 dilution", "value": 116}, {"measurement": "Fluorescence intesity", "setting": "serum of Uterine cervical Ca. patient #16, 1:100 dilution", "value": 182}, {"measurement": "Fluorescence intesity", "setting": "serum of Uterine cervical Ca. patient #17, 1:100 dilution", "value": 56}, {"measurement": "Fluorescence intesity", "setting": "serum of Uterine cervical Ca. patient #18, 1:100 dilution", "value": 49}, {"measurement": "Fluorescence intesity", "setting": "serum of Uterine cervical Ca. patient #19, 1:100 dilution", "value": 62}, {"measurement": "Fluorescence intesity", "setting": "serum of Uterine cervical Ca. patient #20, 1:100 dilution", "value": 106}, {"measurement": "Fluorescence intesity", "setting": "serum of Uterine cervical Ca. patient #21, 1:100 dilution", "value": 19}, {"measurement": "Fluorescence intesity", "setting": "serum of Uterine cervical Ca. patient #22, 1:100 dilution", "value": 20}, {"measurement": "Fluorescence intesity", "setting": "serum of Uterine cervical Ca. patient #23, 1:100 dilution", "value": 57}, {"measurement": "Fluorescence intesity", "setting": "serum of Uterine cervical Ca. patient #24, 1:100 dilution", "value": 1819}, {"measurement": "Fluorescence intesity", "setting": "serum of Uterine cervical Ca. patient #25, 1:100 dilution", "value": 17}, {"measurement": "Fluorescence intesity", "setting": "serum of Uterine cervical Ca. patient #26, 1:100 dilution", "value": 128}, {"measurement": "Fluorescence intesity", "setting": "serum of Uterine cervical Ca. patient #27, 1:100 dilution", "value": 28}, {"measurement": "Fluorescence intesity", "setting": "serum of Uterine cervical Ca. patient #28, 1:100 dilution", "value": 139}, {"measurement": "Fluorescence intesity", "setting": "serum of Uterine cervical Ca. patient #29, 1:100 dilution", "value": 14}, {"measurement": "Fluorescence intesity", "setting": "serum of Uterine cervical Ca. patient #30, 1:100 dilution", "value": 33}, {"measurement": "Fluorescence intesity", "setting": "serum of Uterine cervical Ca. patient #31, 1:100 dilution", "value": 108}, {"measurement": "Fluorescence intesity", "setting": "serum of Uterine cervical Ca. patient #32, 1:100 dilution", "value": 18}, {"measurement": "Fluorescence intesity", "setting": "serum of Uterine cervical Ca. patient #33, 1:100 dilution", "value": 141}, {"measurement": "Fluorescence intesity", "setting": "serum of Uterine cervical Ca. patient #34, 1:100 dilution", "value": 15}, {"measurement": "Fluorescence intesity", "setting": "serum of Uterine cervical Ca. patient #35, 1:100 dilution", "value": 18}]}]}
